Test system: complementary strand of DNA
Assay: Thermal denaturation of DNA-dendrimer conjugate hybridized with complementary strand
Format: binding

native: unmodified single stranded DNA, sequence TTC TCT TCA GTT CAC A (5′ to 3′) (DNA TTCTCTTCAGTTCACA; unmodified DNA)
Tm (thermal denaturation, melting temperature): 52.3 °C
